According to ChEMBL document CHEMBL1201862, “PubChem BioAssay data set” (2004):
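Grown in 96-well plates, cells were treated for 48 hours with each compound at five concentrations. Insufficient inhibition: endpoint recorded as highest concentration tested. The concentration for 50% growth inhibition is given as GI50.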 Activity calls are given as the source filed them. Rule as the data show it: active = GI50 up to about 1.1 µM and inactive = higher.

Legend:
Assay in all cases: NCI-60 cell line screen, 48 h
[1] = system: LXFL 529
[2] = system: XF498
[3] = system: DMS-273
[4] = system: RXF 631
[5] = system: HOP-18
[6] = system: DLD-1
[7] = system: M19-MEL
[8] = system: DMS-114
[9] = system: SNB-78

Measured: GI50

O=C(O)C12C3CCC(C3)C1(C(=O)O)C1CCC2C1 (stereo not drawn)
inactive: [1] > 100 µM | [2] > 100 µM | [3] > 100 µM | [4] > 100 µM | [5] > 100 µM | [6] 24.7 µM | [7] 92.5 µM | [8] 33.9 µM | [9] > 100 µM

O=C1C(Br)=C(Br)C(=O)c2ccc(=O)ccc21
inactive: [1] 17.7 µM | [2] 24 µM | [3] 48 µM | [4] 18.7 µM | [5] 24.2 µM | [6] 22.3 µM | [7] 17.2 µM | [8] 20.4 µM | [9] 29.3 µM
